The term IC50 denotes the point on the concentration scale where inhibition reaches its midpoint. In general, EC50 refers to the concentration needed to bring the measured effect to its halfway point.

Data set [1] concerns m+3 lactate secretion (glycolysis) in SDH-WT cells. The data set can be described thus: Glycolysis inhibition (IC50 Lactate m+3). The class given is cell-based. The settings on record: 1 h, 25 mM 13C-glucose, one hour. On the procedure: (§1) Glycolysis Inhibition (IC50 Lactate m+3)
(§2) Cell were plated in DMEM, 25 mM Glucose, 1 mM Pyruvate, 1 mM Glutamine and 10% Dialyzed serum in 96 well plates in triplicates. The day after the medium was replaced to fresh medium with 25 mM ^13C-glucose and treated with different concentrations of the compounds as indicated. One hour later the medium was collected and the level of m+3 lactate was determined by LC-MS. The IC50 of inhibition of m+3 lactate secretion into the medium was calculated with Prism.

The test system of data set [2] is m+3 lactate secretion (glycolysis) in SDH-KO cells. The data set can be described thus: Glycolysis inhibition (IC50 Lactate m+3). The class given is cell-based. The settings on record: 1 h, 25 mM 13C-glucose, one hour. On the procedure: as §1, §2
Data set [3] deals with SDH-WT cells. The data set can be described thus: Cellular / differential toxicity assay (CellTiter-Glo, 3 days). The settings on record: Mus musculus, 72 h. The data set is classed as cell-based, murine. The gist of the method: (§3)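 Isogenic SDHB-deficient (HRAS-transformed SDH-KO) and SDH-WT cells grown in DMEM-F12 with 1 mM glutamine and 3% FBS, plated with compound (10-point dilution from 10 uM to 0.0065 uM or lower) for 3 days at 37 °C, 5% CO2. Viability by CellTiter-Glo luminescence; EC50 calculated.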

Data set [4] deals with SDH-KO-HRAS cells (SDHB-deficient). Described as above. The class given is cell-based, murine. The following applies: for EC50: Mus musculus, 72 h. The gist of the method:
as §3

Data set [5] is described as follows: PK profile (plasma and brain concentration). The class given is in vivo. Here is the method: FIG. 14 describes the pharmacokinetics of compound 332.
FIG. 14A depicts the Mean Plasma Concentration of Compound 332 after IP7, IV bolus1 and PO2 Dosing. FIG. 14B depicts the Mean Brain Concentration of Compound 332 after IP Dosing at 2.50 mg/kg and FIG. 14C depicts the Mean Brain Concentration of Compound 332 after IV bolus Dosing at 2.50 mg/kg.

Data set [6] deals with 2-DeoxyGlucose phosphorylation in murine SDH-WT cells. The data set can be described thus: 2 DG phosphorylation assay. The class given is cell-based. The following applies: Mus musculus, 0.25 h, 15 min, LC-MS. On the procedure: IC50 of compound 145 and GluT1 inhibitor […] in a 2 DG phosphorylation assay was done using murine SDH-WT cells. The cells were treated for 15 min with the indicated compound at different concentrations in the presence of 2 DG. 2 DG phosphorylation was determined by LC-MS analysis and the inhibition IC50 was determined by Prism software.

Data set [7] has as its system UOK269 (SDHB-def.) RCC. The data set can be described thus: Cell viability in SDH-deficient/proficient isogenic pairs. The class given is cell-based, Human. The following applies: Homo sapiens, tumor-derived, 72 hours. Here is the method: (§4) The cells were grown in DMEM F12 supplemented with 1 mM Glutamine+3% FBS were treated with different concentrations of the indicated compounds. Cell viability was determined 72 hours later by CellTiter Glue reagent (Promega), the luminescence was measured with ClarioStar reader (BMG) and the EC50s were calculated by Prism. Murine SDHB-WT/KO, HRAS transformed isogenic pair (FIG. 12A); UOK269, Human Tumor-derived SDHB-deficient RCC in their WT counterpart with re-expression of SDHB (FIG. 12B); and ACHN, RCC cells, and their SDHB-KO (SDHB CRISPRed out) isogenic cells (FIG. 12C).

In data set [8] the test system is UOK269-WT (re-expression of SDHB). Described as above. The class given is cell-based, Human. The settings on record: Homo sapiens, tumor-derived, 72 hours. Here is the method: as §4
Data set [9] has as its system ACHN WT, RCC cells. The description is as above. The class given is cell-based. The following applies: Homo sapiens, cancer cells, 72 hours. Here is the method:
as §4

The subject of data set [10] is ACHN SDHB −/− (SDHB CRISPRed out). The data set is described as above. The data set is classed as cell-based. The following applies: Homo sapiens, cancer cells, 72 hours. On the procedure:
as §4

A short description of data set [11]: Plasma glucose levels in mice after oral administration. The following applies: 2 mg/Kg. The data set is classed as in vivo. Here is the method:
FIG. 8 depicts the glucose levels in mice plasma after oral administration of 2 mg/Kg of compound 111. Compound 111 at 2 mg/kg was orally administrated to mice. Blood samples were taken at different time points thereafter and Glucose level was determined.

Data set [12] in a line: Glucose levels and Maximum Tolerated Dose in mice at different diets. The class given is in vivo. The source says: Glucose Levels as Measured in Mice after Different Dosages of Compound 111 at Different Diets.
Data set [13] relates to SDH-KO cells (SDH-deficient tumors). The data set can be described thus: Tumor volume of SDH-KO cells vs. time in mice on ketogenic diet. The following applies: treated two weeks post-injection, prior to tumor formation. The class given is in vivo. The source says: FIG. 10 depicts the tumor volume of SDH-KO cells vs. time in mice on ketogenic diet, treated for two weeks post-injection, but prior to tumor formation.

Data set [14] deals with MDA-MB-468 (Breast cancer). The data set can be described thus: Toxicity assay with or without rotenone. The data set is classed as cell-based. The following applies: Homo sapiens, 72 hours. On the procedure:
(§5) Toxicity assay: Cells were growing in 96 well plates in DMEM F12 with 17 mM glucose, 0.5 mM Sodium Pyruvate, 1 mM Glutamine and 3% FBS. The cells were treated with the indicated compounds (10 different concentrations) with or without 25 nM rotenone. Viability was determined after 72 hours of treatment using CellTiter Glo reagent (Promega). EC50 was calculated using Prism software.

Data set [15] deals with MiaPaca2 (Pancreatic cancer). The data set can be described thus: Toxicity assay with or without rotenone. The data set is classed as cell-based. The following applies: Homo sapiens, MIA PaCa-2, 72 hours. On the procedure: as §5
Data set [16] relates to Panc1 (Pancreatic cancer). The data set can be described thus: Toxicity assay with or without rotenone. The data set is classed as cell-based. The following applies: Homo sapiens, PANC-1, 72 hours. On the procedure: as §5
Data set [17] deals with HCT116 (Colon cancer). The data set can be described thus: Toxicity assay with or without rotenone. The data set is classed as cell-based. The settings on record: Homo sapiens, HCT-116, 72 hours. On the procedure: as §5
Data set [18] deals with MM.1S (Multiple myeloma). The data set can be described thus: Toxicity assay with or without rotenone. The following applies: Homo sapiens, MM1.S, 72 hours. The data set is classed as cell-based. Here is the method: as §5
The mark [19] stands for this setting: toxicity, SDH-WT cells, 3 days, CellTiter-Glo, read-out: EC50 (uM) SDH-WT.
The mark [20] stands for this setting: toxicity, SDH-KO cells, 3 days, CellTiter-Glo, read-out: EC50 (uM) SDH-KO-HTAS-C17.

SMILES strings stand for the structures. Like-named read-outs stand apart in the source and are kept apart here.

For `COCc1c2c(nc3sc4c(NCCc5ccc6[nH]cnc6c5)ncnc4c13)CC(C)(C)OC2` [Compound 308, N-(2-(1H-Benzo[d]imidazol-5-yl)ethyl)-11-(methoxymethyl)-8,8-dimethyl-7,10-dihydro-8H-pyrano[3″,4″:5′,6′]pyrido[3′,2′:4,5]thieno[3,2-d]pyrimidin-4-amine], the IC50 in [1] is 0.15 nM; in [2], 0.03 nM. Moreover, the concentration for a half-maximal effect (EC50) is 2.17 µM in data set [3] (SDH-WT cells, 72 hours, Example 7, read-out: EC50 Tox); 1 to 3 µM in [3] (setting [19]); 0.004 nM in data set [4] (SDH-KO cells, 72 hours, Example 7, read-out: EC50 Tox); < 1000 nM in [4] (setting [20]). Further, the “differential effect between SDH-WT and KO cells (EC50 Tox)” value in [4] (cell viability, Example 7) was > 500,000 folds.

For `COCCOCc1c2c(nc3sc4c(NCCc5ccc6[nH]cnc6c5)ncnc4c13)CC(C)(C)OC2` [Compound 332], the half-maximal effective concentration (EC50) in data set [3] (setting [19]) is 1 to 3 µM; in data set [4] (setting [20]), < 1000 nM. The “differential toxicity, SDH-KO cells compared to SDH-WT cells” value in [4] (viability EC50s, 72 hours, Example 6) is recorded as 235. Besides, the oral bioavailability result in data set [5] (PO dosing vs IV bolus, plasma) is “low”. The brain penetration entry in data set [5] (brain concentration after IP and IV bolus dosing at 2.50 mg/kg) is recorded as “brain penetrant”.

`Cc1c(NC(=O)c2cc(C(N)=O)nc3cc(F)ccc23)c(C(F)(F)F)nn1Cc1ccc(C#N)cc1` [BAY-876, reference compound] gave an IC50 in [6] of 21.6 nM. Besides, the EC50 in data set [7] worked out at 15 nM; in data set [8], 5300 nM; in data set [3] (Murine SDH-WT, transformed, 72 hours, Example 8, read-out: EC50) it was 0.134 µM; in data set [4] (Murine SDH-KO, transformed, 72 hours, Example 8, read-out: EC50), 0.95 nM; in data set [9] it was 24200 nM; in data set [10] it was 256 nM.

On to `CC(=O)Nc1ccc(CCNc2ncnc3c2sc2nc4c(cc23)COC(C)(C)C4)cc1` [Compound 111], for which the “level of glucose in the plasma” value in [11] is listed as “increase”. Besides, the “elevation in plasma glucose levels on ketogenic diet” value in data set [12] (ketogenic diet) is given as “delayed”. In addition, the “Maximum Tolerated Dose (MTD) on ketogenic diet” value in data set [12] (ketogenic diet vs other diet) is recorded as “doubled”. In data set [12] (ketogenic diet, two weeks of treatment), the “tolerability on ketogenic diet” value is given as “up to 4 mg/Kg”. The EC50 in data set [3] (setting [19]) was > 10 µM; in [4] (setting [20]) it was < 1000 nM; in data set [14] (MDA-MB-468, with 25 nM rotenone, read-out: EC50 (nM) with Rotenone) it was 1400 nM; in data set [14] (MDA-MB-468, without rotenone, read-out: EC50) it was > 30000 nM; in data set [15] (MiaPaca2, with 25 nM rotenone, read-out: EC50 (nM) with Rotenone), 61 nM; in data set [15] (MiaPaca2, without rotenone, read-out: EC50), 37000 nM. For the same compound, the concentration for a half-maximal effect (EC50) in data set [16] (Panc1, with 25 nM rotenone, read-out: EC50 (nM) with Rotenone) was 91 nM; in data set [16] (Panc1, without rotenone, read-out: EC50), 136000 nM; in data set [17] (HCT116, with 25 nM rotenone, read-out: EC50 (nM) with Rotenone), 510 nM; in data set [17] (HCT116, without rotenone, read-out: EC50) it was 9700 nM; in [18] (with 25 nM rotenone, read-out: EC50 (nM) with Rotenone), 52 nM; in data set [18] (without rotenone, read-out: EC50), 79000 nM. Further, the “tumor onset and growth (tumor volume vs. time)” value in data set [13] is “delays tumor onset and growth”.

Turning to `CCC(CO)Nc1ncnc2c1sc1nc3c(cc12)COC(C)(C)C3` (centres unmarked) [Compound 291], the values for the EC50 in data set [3] (setting [19]) and in data set [4] (setting [20]) were > 10 µM and > 10000 nM, respectively.

On to `CNc1ccc(CCN(C)c2ncnc3c2sc2nc4c(cc23)COC(C)(C)C4)cc1[N+](=O)[O-]` [Compound 181], for which the EC50 in data set [3] (setting [19]) was 3 to 10 µM; in data set [4] (setting [20]), 3000 to 10000 nM.

`CC1(C)Cc2nc3sc4c(NCCc5ccc6[nH]c(-c7ccccc7)nc6c5)ncnc4c3cc2CO1` [Compound 190]: the EC50 in data set [3] (setting [19]) was < 1 µM; in data set [4] (setting [20]) it was 1000 to 3000 nM.

For `c1ccc(-c2nc(NCCc3ccc4[nH]cnc4c3)c3sc4ncccc4c3n2)cc1` [Compound 307, N-(2-(1H-Benzo[d]imidazol-5-yl)ethyl)-2-phenylpyrido[3′,2′:4,5]thieno[3,2-d]pyrimidin-4-amine], the values for the half-maximal effective concentration (EC50) in data set [3] (setting [19]) and in data set [4] (setting [20]) were 3 to 10 µM and > 10000 nM, respectively.

For the origin of these results see patent US20230084927A1, “GLUCOSE UPTAKE INHIBITORS AND USES THEREOF” (METABOMED LTD., priority 2019, published 2023).
